Experiments:
[1] = system: Body Torsion Reaction of Mice Caused by Acetic Acid; assay: Body torsion reaction of mice caused by acetic acid, oral administration; type: in vivo, Kunming strain mice; settings: 0.03 (head mg/kg; text 30 mg/kg)
Protocol: Clam extract composition of the invention was dissolved in 2N acetic acid and the pH value was adjusted to be 6.5~7.0. The normal saline in an adequate amount was added to formulate a solution. Indomethacin: produced by Shijiazhuang Pharmaceutical Factory, with the lot number of 009011021, which was formulated into a suspension with 2% of starch paste.
Kunming strain mice, male and female, with body weight of 20±2 g, provided by the Department of Animals of Beijing Medical University.
Fifty mice were randomly allotted into 5 groups based on their body weight and sex. In the control group, 0.2 ml/kg body weight of normal saline was administered per oral; while in the positive group, 30 mg/kg of indomethacin was administered per oral. […] 90 minutes later, 0.2 ml of 0.6% acetic acid per mouse was intraperitoneally injected and the number of body torsion reactions (abdominal excavation, extension of trunk and hind limbs, and elevation of buttock) of the mouse observed within 15 minutes after the injection of acetic acid was recorded.

[2] = system: Pain Threshold of Tail Roots of Mice Caused by Electric Irritation; assay: Pain threshold of tail roots of mice, electric irritation; type: in vivo; settings: 7.5 mg/kg; for Pain threshold: before medication 0.22 ± 0.08, P < 0.05; for Increasing percentage of the pain threshold: intrarectal, P < 0.01 vs control
Protocol: (§1) The purpose of the test is to observe effects of the suppository prepared by the clam extract composition of the invention on pains of mice caused by chemical and electric irritation, and the time of initiation and duration of the effect.
(§2) The clam extract composition of the invention was dissolved in 2 mol acetic acid and the pH value was adjusted to be 6.5~7.0. Then normal saline in an adequate amount was added.
(§3) Indomethacin: produced by Nantong Second Pharmaceutical Factory, with the lot number of 860321, which was formulated into a suspension with 2% of water-soluble starch paste.
An electric stimulator of Model NEN-7103, and an isolator of Model SS-102J, made in Japan.
After fasting for 12 hours, 50 mice were randomly allotted into 5 groups based on their body weight and sex. The root of mouse's tail was stimulated with electric current of square wave (10 ms of pulse width and 1 Hz of the frequency). The pain threshold was determined as the electric intensity which just makes the mouse screaming. The drug was intrarectally administered with the volume of 0.05 ml per mouse. […]

[3] = system: Body Torsion Reaction of Mice Caused by Acetic Acid; assay: Body torsion reaction of mice caused by acetic acid, intrarectal administration; type: in vivo; settings: 7.5 mg/kg
Protocol: as §1, §2, §3
After fasting for 12 hours, 60 mice were randomly allotted into 6 groups based on their body weight and sex. The drug was intrarectally administered in the dosage indicated in Table 3 and the volume of drug administered was 0.05 ml per mouse. 35 minutes later, 0.20 ml of 0.6% acetic acid was intraperitoneally injected to each mouse. The number of body torsion reactions (abdominal excavation, extension of trunk and hind limbs, and elevation of buttock) observed within 15 minutes after the injection of acetic acid was recorded.

COc1ccc2c(c1)c(CC(=O)O)c(C)n2C(=O)c1ccc(Cl)cc1 [Indomethacin]
Inhibition rate [1]: 93.7% | Number of body torsions ([1]; control 44.1 ± 12.8, P < 0.01): 2.8 ± 4.8 n | Pain threshold ([2]; 20 min, control 0.25 ± 0.08): 0.32 ± 0.06 mA | Pain threshold ([2]; 40 min, control 0.28 ± 0.11): 0.41 ± 0.12 mA | Pain threshold ([2]; 60 min, control 0.26 ± 0.13): 0.44 ± 0.15 mA | Pain threshold ([2]; 90 min, control 0.26 ± 0.13): 0.41 ± 0.13 mA | Pain threshold ([2]; 120 min, control 0.25 ± 0.11): 0.38 ± 0.13 mA | Increasing percentage of the pain threshold ([2]; 20 min): 37.4 ± 18.4 percentage | Increasing percentage of the pain threshold ([2]; 40 min): 71.4 ± 39.4 percentage | Increasing percentage of the pain threshold ([2]; 60 min): 86.3 ± 45.9 percentage | Increasing percentage of the pain threshold ([2]; 90 min): 72.5 ± 59.1 percentage | Increasing percentage of the pain threshold ([2]; 120 min): 69.6 ± 62.3 percentage | Inhibition rate [3]: 93.1% | Number of body torsions ([3]; control 39.3 ± 14.4): 2.7 ± 4.1 n
